These results are taken from patent US7405240B2, “Substituted cyclopentanes or cyclopentanones as therapeutic agents” (Allergan, Inc., priority 2006, dated 2008).

In general, Ki refers to a dissociation constant, usually derived from enzyme kinetics or from competition with a known ligand. The term EC50 denotes the concentration needed to bring the measured effect to its halfway point.

The subject of data set [1] is laser-induced hypertensive monkeys. Kind of data set: Intraocular pressure in laser-induced hypertensive monkeys. The data set is classed as in vivo, monkey. The note with it: 0.1%, one single day dose. On the procedure:
(§1) (Z)-7-[(1R,2S,3R,5R)-5-Chloro-2-(3,5-dichloro-phenoxymethyl)-3-hydroxy-cyclopentyl]-hept-5-enoic acid (15b) was tested at multiple concentrations in normotensive dogs, dosing once daily for 5 days. At 0.05%, the maximum IOP decrease from baseline was 4.3 mmHg (30%) at 6 h; the maximum OSH score was 0.6 at 6 h. […] This compound was also tested in laser-induced hypertensive monkeys, using one single day dose. At 0.1%, the maximum IOP decrease from baseline was 6 mmHg (19%) at 6 h.
(§2) (Z)-7-[(1R,2S,3R,5R)-5-Chloro-2-(3,5-dichloro-phenoxymethyl)-3-hydroxy-cyclopentyl]-hept-5-enoic acid isopropyl ester (42b) was tested in normotensive dogs at 0.05%, dosing once daily for 5 days. The maximum intraocular pressure (IOP) decrease from baseline was 3 mmHg (19%) at 6 h; the maximum ocular surface hyperemia (OSH) score was 0.6 at 74 h. This compound was also tested in laser-induced hypertensive monkeys, using one single day dose. At 0.01%, the maximum IOP decrease from baseline was 6 mmHg (16%) at 6 h.

Another data set relates to normotensive dogs. Description: Intraocular pressure and ocular surface hyperemia in normotensive dogs. The data set is classed as in vivo, dog. Details: maximum OSH score: scale not given here. The note with it: 0.1%, once daily for 5 days. On the procedure: as §1, §2
Data set [2] concerns the target T1, hEP4 (Homo sapiens, UniProt P35408). Kind of data set: Radioligand binding, EP4 receptor. Details: expressed in transfected cells; host or cells: HEK-293. The note with it: [3H]PGE2, HEK-293 cells expressing EP4. In outline:
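HEK-293 membranes stably expressing human EP4, in TME buffer pH 7.4; competition vs 5 nM [3H]-PGE2, 60 min at 25 °C, stopped by GF/B filtration. Non-specific binding defined with 10^−5 M unlabeled PGE2; duplicates, at least three experiments.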

For data set [3], the target named is T2, hEP2 (Homo sapiens, UniProt P43116). Description: Competition binding, [3H]PGE2, human EP2 receptors. Details: expressed in transfected cells; host or cells: HEK 293. The following applies: [3H]PGE2, HEK 293 cells stably expressing human EP2; read-out: hEP2 Ki. In a few lines:
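HEK 293 membranes or cells stably expressing human EP2 were incubated with 10 nM [3H]PGE2 and test compound in HBSS/20 mM Hepes pH 7.3, 60 min at 23° C, then filtered. Non-specific binding defined with 10 μM PGE2; IC50 from single-site fit converted to Ki using KD 40 nM.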

Data set [4] addresses T2, hEP2. Kind of data set: FLIPR calcium signal, hEP2. It is filed as cell-based. Details: expressed in transfected cells; host or cells: HEK-293(EBNA). The following applies: HEK-293(EBNA) cells expressing hEP2/Gqs5. In outline: (§3)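 HEK-293(EBNA) cells stably expressing a single human prostaglandin receptor (hDP/Gqs5 chimera for DP), Fluo-4 AM loaded, in HBSS-HEPES pH 7.4 at 37 °C. Peak calcium fluorescence scaled to buffer and receptor standard agonist; 10^−5 M single-point or 10^−5–10^−11 M curves, duplicates, n≥3.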

Data set [5] concerns the target T2, hEP2. Description: cAMP assay, hEP2. It is filed as cell-based.
Data set [6] deals with T1, hEP4. Kind of data set: FLIPR calcium signal, hEP4. The data set is classed as cell-based. The following applies: HEK-293(EBNA) cells expressing hEP4/Gqs5. Details: expressed in transfected cells; host or cells: HEK-293(EBNA). In a few lines: as §3

T2 sequence (P43116 whole entry): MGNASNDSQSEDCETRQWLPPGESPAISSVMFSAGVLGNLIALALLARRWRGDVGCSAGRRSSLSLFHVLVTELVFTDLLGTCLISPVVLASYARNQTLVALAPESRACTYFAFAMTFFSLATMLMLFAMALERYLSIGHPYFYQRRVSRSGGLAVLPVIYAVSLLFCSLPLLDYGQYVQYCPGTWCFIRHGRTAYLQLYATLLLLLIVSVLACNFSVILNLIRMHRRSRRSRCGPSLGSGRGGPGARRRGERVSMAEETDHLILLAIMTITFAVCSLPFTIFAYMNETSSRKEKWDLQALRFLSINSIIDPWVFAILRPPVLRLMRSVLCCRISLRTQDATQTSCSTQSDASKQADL
T1 sequence (P35408 whole entry): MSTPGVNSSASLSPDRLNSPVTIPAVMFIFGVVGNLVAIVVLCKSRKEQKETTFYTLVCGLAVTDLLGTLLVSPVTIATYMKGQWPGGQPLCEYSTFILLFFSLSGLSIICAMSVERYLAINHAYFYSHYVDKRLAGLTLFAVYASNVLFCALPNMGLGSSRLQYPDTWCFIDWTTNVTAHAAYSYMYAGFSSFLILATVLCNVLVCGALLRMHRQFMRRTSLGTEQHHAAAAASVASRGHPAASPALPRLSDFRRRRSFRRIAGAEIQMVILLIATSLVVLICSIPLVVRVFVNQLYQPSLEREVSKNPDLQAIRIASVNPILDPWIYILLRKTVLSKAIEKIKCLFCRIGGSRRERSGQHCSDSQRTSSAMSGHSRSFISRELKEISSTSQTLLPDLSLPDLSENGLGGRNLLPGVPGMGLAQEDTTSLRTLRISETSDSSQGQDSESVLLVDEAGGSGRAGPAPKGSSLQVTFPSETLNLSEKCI

In the case of `O=C(O)CCC/C=C\C[C@@H]1[C@@H](COc2cc(C(F)(F)F)cc(C(F)(F)F)c2)[C@H](O)C[C@H]1Cl` [Example 15, (Z)-7-[(1R,2S,3R,5R)-2-(3,5-Bis-trifluoromethyl-phenoxymethyl)-5-chloro-3-hydroxy-cyclopentyl]-hept-5-enoic acid], the figures for the “maximum IOP decrease from baseline” value (in data set [1]; in the data set with normotensive dogs) were 11 mmHg and 4.8 mmHg, respectively. Also, the “time of maximum IOP decrease” value in data set [1] was found to be 6 h; in the data set on normotensive dogs, 100 h. In addition, the change in vivo at 0.1 % in data set [1] (Primates, topical, read-out: maximum IOP decrease from baseline) was found to be 30%; in the data set on normotensive dogs (Canis lupus familiaris, topical, 120 h, read-out: maximum IOP decrease from baseline), 35%. In the data set on normotensive dogs, the “maximum OSH score” value is on record as 0.9. Further, the “time of maximum OSH score” value with normotensive dogs was determined as 52 h. Moreover, the results for the Ki on hEP4 [2] and on hEP2 [3] were 2290 nM and 8 nM, respectively. In addition, the results for the EC50 on hEP2 [4], on hEP2 [5] and at hEP4 [6] were 11 nM, 8 nM and 13000 nM, respectively.
